From paper PMC8242467 (Cell Reports, 2021) come the findings set out here.

The EC50 is the concentration at which the effect is half-maximal.

In the experiment the target is T1, mitochondrial calcium uniporter (MCU) (Homo sapiens, UniProt Q8NE86).
T1 sequence (Q8NE86 51-351): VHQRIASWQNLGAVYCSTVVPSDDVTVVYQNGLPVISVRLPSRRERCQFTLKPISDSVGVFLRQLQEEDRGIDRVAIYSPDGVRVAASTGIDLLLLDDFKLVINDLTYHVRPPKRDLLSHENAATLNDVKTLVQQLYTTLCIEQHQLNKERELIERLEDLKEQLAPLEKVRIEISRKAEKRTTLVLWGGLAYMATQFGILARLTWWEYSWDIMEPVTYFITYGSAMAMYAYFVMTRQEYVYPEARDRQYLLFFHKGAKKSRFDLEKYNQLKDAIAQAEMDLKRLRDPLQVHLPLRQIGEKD
The experiment can be described thus: mitochondrial Ca2+ uptake in permeabilized HeLa cells. Format: cell-based.

Where a name gives a salt, the structure may show the parent alone.

As to `CCC(C)(C)c1ccc(CC(C)CN2C[C@@H](C)O[C@@H](C)C2)cc1` (stereo partly drawn) [amorolfine, (2R,6S)-2,6-dimethyl-4-[2-methyl-3-[4-(2-methylbutan-2-yl)phenyl]propyl]morpholine;hydrochloride], the EC50 worked out at 86.9 µM.
